Here are results for nine molecules from US20260109707A1, “HETEROBIFUNCTIONAL COMPOUNDS AND METHODS OF TREATING DISEASE” (Halda Therapeutics OpCo. Inc., priority 2022, published 2026).

A short description of test [1]: Cellular growth inhibition assay, T-Rex 293 SC cells with doxycycline (CellTiter-Glo, 72 hours). To be noted: T-Rex 293 SC cells with doxycycline (increased progesterone receptor isoform B). Type of test: cell-based. How it is done: The following types of cells were prepared for this experiment: (i) a T-Rex 293 cell line having increased expression of progesterone receptor isoform B protein due to exposure to doxycycline and (ii) a T-Rex 293 cell line lacking increased expression of progesterone receptor isoform B protein. Ability of the test compounds to inhibit proliferation of the foregoing cell types was evaluated according to the procedures set forth below.
The doxycycline-inducible progesterone receptor isoform B protein expressing cell line was established using the following protocol: T-Rex 293 cells were purchased from Invitrogen (Cat #R71007) and transfected using Lipofectamine 2000 with the wild-type progesterone receptor B protein sequence cloned into the pcDNA4/TO vector. Transfected cells were selected using 400 μg/mL Zeocin (Invitrogen Cat #R25001). Following selection, single clones were raised and maintained in Dulbecco's Modified Eagle Medium (DMEM) supplemented with 10% w/w Tetracycline-free fetal bovine serum (FBS) and 250 μg/mL Zeocin. Clones were analyzed for expression of progesterone receptor isoform B protein in the presence and absence of 10 ng/mL doxycycline (Sigma Cat #D9891), and a single doxycycline-inducible clone (hereinafter “SC”) was selected for use in downstream assays.
The SC cells were seeded on poly-D-lysine coated, black clear-bottom 384-well plates at 2500/well, in 25 μL Phenol Red Free Dulbecco's Modified Eagle Medium (DMEM) supplemented with 10% w/w charcoal-dextran treated fetal bovine serum (FBS) and 1% w/w pen-strep, with or without 10 ng/mL doxycycline. Pen-Strep is a commercially available mixture of penicillin G and streptomycin, which is used in mammalian cell culture media to prevent bacterial contamination. Phenol Red Free Dulbecco's Modified Eagle Medium (DMEM) supplemented with 10% w/w charcoal-dextran treated fetal bovine serum (FBS) and 1% w/w pen-strep, with or without 10 ng/mL doxycycline is herein referred to as Treatment Medium. Following seeding of cells in the plates, the plates were spun at 300×g for 30 seconds, then equilibrated to room temperature for 30 minutes, and then deposited in a humidified tissue culture incubator maintained at 37° C. with 5% CO2.
At 24 hours after seeding of the cells, dilutions of test compound were prepared in DMSO and dissolved in Treatment Medium, to achieve a final DMSO concentration of 0.5% w/w, thereby providing the Test Compound Solution. A 25 μL aliquot of the Test Compound Solution was added to cells in the well plates. An equal volume of a solution containing DMSO and Treatment Medium was used as a negative control. Following treatment of cells with Test Compound Solution or said equal volume of a solution containing DMSO and Treatment Medium, the plates were spun at 300×g for 30 seconds, and then left in an incubator for 72 hours.
At the end of the treatment duration, cell viability was quantified with CellTiter-Glo 2.0 reagent (Promega Cat #G9243). For this purpose, plates were equilibrated to room temperature for 30 minutes, and then 25 μL of CellTiter-Glo 2.0 reagent was added to cells in the plate wells. Plates were then agitated on a shaker for two minutes at 500 rpm and subsequently incubated at room temperature for 10 minutes. Following incubation, the plates were spun at 3000×g for 30 seconds, then sealed with an optical adhesive cover, and luminescence readings were measured with an EnVision Plate Reader (Perkin Elmer).
Data was normalized using zero luminescence for baseline. A four-parameter non-linear regression curve fit was applied to dose-response data in GraphPad Prism data analysis software to determine the half-maximal growth inhibitory concentration (GI50) for each test compound.

A further test deals with T1, BRD4-BD1 (Homo sapiens, UniProt O60885).
T1 construct: made in house; host or cells: T7 phage grown in an E. coli host derived from the BL21 strain
The experiment in a line: bromoKdELECT assay for binding affinity to BRD4-BD1. To be noted: binding to BRD4-BD1, Table 4. How it is done:
Compounds were tested using a bromoKdELECT assay. T7 phage strains displaying bromodomains were grown in parallel in 24-well blocks in an E. coli host derived from the BL21 strain. E. coli were grown to log-phase and infected with T7 phage from a frozen stock (multiplicity of infection=0.4) and incubated with shaking at 32° C. until lysis (90-150 minutes). The lysates were centrifuged (5,000×g) and filtered (0.2 μm) to remove cell debris. Streptavidin-coated magnetic beads were treated with biotinylated small molecule or acetylated peptide ligands for 30 minutes at room temperature to generate affinity resins for bromodomain assays. The liganded beads were blocked with excess biotin and washed with blocking buffer (SeaBlock (Pierce), 1% BSA, 0.05% Tween 20, 1 mM DTT) to remove unbound ligand and to reduce nonspecific phage binding. Binding reactions were assembled by combining bromodomains, liganded affinity beads, and test compounds in 1× binding buffer (17% SeaBlock, 0.33×PBS, 0.04% Tween 20, 0.02% BSA, 0.004% Sodium azide, 7.4 mM DTT). Test compounds were prepared as 1000× stocks in 100% DMSO. Kds were determined using an 11-point 3-fold compound dilution series with one DMSO control point. All compounds for Kd measurements are distributed by acoustic transfer (non-contact dispensing) in 100% DMSO. The compounds were then diluted directly into the assays such that the final concentration of DMSO was 0.09%. All reactions performed in polypropylene 384-well plates. Each was a final volume of 0.02 ml. The assay plates were incubated at room temperature with shaking for 1 hour and the affinity beads were washed with wash buffer (1×PBS, 0.05% Tween 20). The beads were then resuspended in elution buffer (1×PBS, 0.05% Tween […] non-biotinylated affinity ligand) and incubated at room temperature with shaking for 30 minutes. The bromodomain concentration in the eluates was measured by qPCR.

The target in the next test is T2, progesterone receptor (Homo sapiens, UniProt P06401).
T2 sequence (P06401 679-933 limits assumed): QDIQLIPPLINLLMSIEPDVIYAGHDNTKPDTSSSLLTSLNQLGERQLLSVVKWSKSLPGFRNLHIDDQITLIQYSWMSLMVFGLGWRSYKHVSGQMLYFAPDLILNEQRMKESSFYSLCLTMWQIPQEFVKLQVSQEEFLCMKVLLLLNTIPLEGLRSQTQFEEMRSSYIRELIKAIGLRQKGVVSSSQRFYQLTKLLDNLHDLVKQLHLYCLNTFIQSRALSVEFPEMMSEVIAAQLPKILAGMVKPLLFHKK
The experiment in a line: PR Human Progesterone NHR Binding (Agonist Radioligand) Assay. The settings on record: binding to the progesterone receptor, cytosolic fractions of T47D cells, Table 12. The method, then: Compounds were tested using the PR Human Progesterone NHR Binding (Agonist Radioligand) Assay, Cerep at Eurofins Discovery using a modified version of the protocol from Sarup et al. (Cancer Res 1988; 48:5071-5078). Briefly, cytosolic fractions of T47D cells were incubated with 0.5 nM [^3H]progesterone for 1 hour at 4° C. in the absence or presence of the test compound. Nonspecific binding was determined in the presence of 1 μM promegestone. Reactions were subjected to scintillation counting. Results are expressed as a percent inhibition of the control radioligand specific binding.

In general, GI50 refers to the concentration giving 50% growth inhibition. Higher therefore signals less potent growth inhibition. As usually defined, the Kd is the concentration at which binding is half-saturated. `Cc1sc2c(c1C)C(c1ccc(Cl)cc1)=N[C@@H](CC(=O)NCCOC1CCN(c3ccc(C(=O)N[C@H]4CC[C@H](Oc5ccc(C#N)c(Cl)c5)CC4)nn3)CC1)c1nnc(C)n1-2` [I-1, N-[4-(3-chloro-4-cyano-phenoxy)cyclohexyl]-6-[4-[2-[[2-[(9S)-7-(4-chlorophenyl)-4,5,13-trimethyl-3-thia-1,8,11,12-tetrazatricyclo[8.3.0.0^2,6]trideca-2(6),4,7,10,12-pentaen-9-yl]acetyl]amino]ethoxy]-1-piperidyl]pyridazine-3-carboxamide]: in test [1], the GI50 was less than 500 nM. Also, the Kd at BRD4-BD1 was 50 to 500 nM.

Take `Cc1sc2c(c1C)C(c1ccc(Cl)cc1)=N[C@@H](CC(=O)NCCOCCOCCOC1CCN(c3ccc(C(=O)N[C@H]4CC[C@H](Oc5ccc(C#N)c(Cl)c5)CC4)nn3)CC1)c1nnc(C)n1-2` [I-2, N-[4-(3-chloro-4-cyano-phenoxy)cyclohexyl]-6-[4-[2-[2-[2-[[2-[(9S)-7-(4-chlorophenyl)-4,5,13-trimethyl-3-thia-1,8,11,12-tetrazatricyclo[8.3.0.0^2,6]trideca-2(6),4,7,10,12-pentaen-9-yl]acetyl]amino]ethoxy]ethoxy]ethoxy]-1-piperidyl]pyridazine-3-carboxamide]: the GI50 in test [1] is less than 500 nM. Besides, the Kd on progesterone receptor lay in the range of 50 to 500 nM.

In test [1], `CCNC(=O)C[C@@H]1N=C(c2ccc(OCCOC3CCN(c4ccc(C(=O)N[C@H]5CC[C@H](Oc6ccc(C#N)c(Cl)c6)CC5)nn4)CC3)cc2)c2c(sc(C)c2C)-n2c(C)nnc21` [I-8] gave a GI50 of less than 500 nM.

In test [1], `CCNC(=O)C[C@@H]1N=C(c2ccc(OCCOCCOC3CCN(c4ccc(C(=O)N[C@H]5CC[C@H](Oc6ccc(C#N)c(Cl)c6)CC5)nn4)CC3)cc2)c2c(sc(C)c2C)-n2c(C)nnc21` [I-10] gave a GI50 of less than 500 nM.

For `CCNC(=O)C[C@@H]1N=C(c2ccc(CCCOC3CCN(c4ccc(C(=O)N[C@H]5CC[C@H](Oc6ccc(C#N)c(Cl)c6)CC5)nn4)CC3)cc2)c2c(sc(C)c2C)-n2c(C)nnc21` [I-17], the Kd at BRD4-BD1 is 50 to 500 nM.

`CCNC(=O)C[C@@H]1N=C(c2ccc(CC3CCN(c4ccc(C(=O)N[C@H]5CC[C@H](Oc6ccc(C#N)c(Cl)c6)CC5)nn4)CC3)cc2)c2c(sc(C)c2C)-n2c(C)nnc21` [I-20] displayed a GI50 in test [1] of less than 500 nM. For the same molecule, the Kd at BRD4-BD1 fell in the range of 50 to 500 nM.

For the molecule `CCNC(=O)C[C@@H]1N=C(c2ccc(N3CC4(C3)CN(c3ccc(C(=O)N[C@H]5CC[C@H](Oc6ccc(C#N)c(Cl)c6)CC5)nn3)C4)cc2)c2c(sc(C)c2C)-n2c(C)nnc21` [I-24], the GI50 in test [1] is less than 500 nM. This molecule showed a Kd on BRD4-BD1 of 50 to 500 nM.

On progesterone receptor, `CCNC(=O)C[C@@H]1N=C(c2ccc(OCC3CN(c4ccc(C(=O)N[C@H]5CC[C@H](Oc6ccc(C#N)c(Cl)c6)CC5)nn4)C3)cc2)c2c(sc(C)c2C)-n2c(C)nnc21` [I-29] came in with a Kd of 50 to 500 nM.

With `CCNC(=O)C[C@@H]1N=C(c2ccc(N3CCC(OC4CCN(c5ccc(C(=O)N[C@H]6CC[C@H](Oc7ccc(C#N)c(Cl)c7)CC6)nn5)CC4)CC3)cc2)c2c(sc(C)c2C)-n2c(C)nnc21` [I-44], the Kd at BRD4-BD1 and on progesterone receptor was 50 to 500 nM throughout.
